Test results reported in paper PMC8619046, “ABCB1 and ABCG2 Control Brain Accumulation and Intestinal Disposition of the Novel ROS1/TRK/ALK Inhibitor Repotrectinib, While OATP1A/1B, ABCG2, and CYP3A Limit Its Oral Availability” (Pharmaceutics, 2021).
“And” between values parts separate entries of the source, which are not always exact repeats. Equal entries are not always repeated. Where two headings read alike, the source gives them in different places.

Experiment: 4-h oral plasma pharmacokinetics and tissue distribution, male wild-type and ABC transporter knockout mice
Assay type: in vivo
Details: 10 mg/kg oral; for AUC(0-t) / Kp at 4 h / concentration at 4 h / Cmax / Tmax: FVB, mouse; for AUC(0-t) / Cmax / Tmax: plasma; for AUC(0-t): read-out: AUC0–4h; for Fold change Cliver / Fold change SIC (% of dose) / Fold change ratio (SIC (%)-to-plasma) / Fold change ratio (liver-to-plasma) / Fold change ratio (testis-to-plasma) / Fold increase Cbrain / Fold increase Ctestis / Fold change ratio (brain-to-plasma) / Fold increase AUC0–4h: vs wild-type; for Tmax: median (range)
Source text: Mice with similar average ages (and body weights) were randomly allocated in experimental groups as far as possible. Mice were maintained in a temperature-controlled and specific pathogen-free environment with a 12-h light and 12-h dark cycle and they received a standard diet (Transbreed, SDS Diets, Technilab-BMI, Someren, The Netherlands) and acidified water ad libitum. […] Given the objective main readout (repotrectinib plasma and tissue concentrations as measured by LC-MS/MS), no blinding method was applied.
Repotrectinib was dissolved in dimethyl sulfoxide (DMSO) at a concentration of 50 mg/mL. This stock solution was first diluted 3-fold with ethanol/polysorbate 80 (1/1; v/v), followed by further dilution with a 10 mM hydrochloric acid solution, yielding a dosing solution of 1 mg/mL, freshly prepared on the day of experiment. Final concentrations of the solvents in the administration solution were: 2%, 2%, 2%, and 94% (all v/v) for DMSO, ethanol, polysorbate 80, and 10 mM hydrochloric acid solution, respectively.
To minimize variation in absorption upon oral administration, mice were fasted for 2–3 h before repotrectinib (10 mg/kg body weight) was administered by gavage into the stomach at 10 µL/g body weight, with a blunt-ended needle. Tail vein serial blood samples were collected at 0.125, 0.25, 0.5, 1, 2 and 4 h using heparinized capillary tubes (Sarstedt, Nümbrecht, Germany) for the 8-h experiments. For the 4- and 2-h experiments, blood samplings were performed from the tail vein with the same schedule, but terminated at 2 and 1 h, respectively. Eight, four, or two hours after oral administration, mice were deeply anesthetized with 2–3% isoflurane, followed by cardiac puncture to collect blood in Eppendorf tubes containing heparin as an anticoagulant. Brain, liver, spleen, kidney, lung, small intestine, and testis were rapidly collected after sacrificing the mice by cervical dislocation. The small intestinal contents (SIC) were separated from small intestinal tissue (SI), which was flushed and rinsed with cold saline to remove any residual feces. Brain, liver, spleen, kidney, lung, SI, SIC, and testis were homogenized with 1, 3, 1, 2, 1, 3, 2, and 1 mL of 2% BSA (w/v), respectively. Plasma fraction was isolated from blood by centrifugation at 9000× g for 6 min at 4 °C. All samples were stored at −30 °C until analysis.
A sensitive and specific liquid chromatography-tandem mass spectrometry method using protein precipitation pre-treatment was adopted to quantify the concentration of repotrectinib in DMEM medium, plasma samples and tissue homogenates.
A non-compartmental model using the PKSolver add-in program for Microsoft Excel was adopted to calculate the pharmacokinetic parameters of repotrectinib. Oral availability was assessed by the plasma area under the curve (AUC), calculated using repotrectinib plasma concentration-time curves with the linear trapezoidal rule without extrapolating the infinity. Statistical testing was performed in Graphpad Prism7 (Graphpad Software, La Jolla, CA, USA). All data are presented as geometric means ± SD. Heteroscedastic data were log-transformed before applying statistical analysis. When differences between two groups were compared, the two-sided unpaired Student’s t test was used. One-way analysis of variance (ANOVA) was applied when multiple groups were compared, and the Bonferroni post hoc correction was used to accommodate multiple testing. Differences were considered statistically significant when P < 0.05.

[1] = male Abcb1a/1b;Abcg2−/− mice, 4 h
[2] = male Abcb1a/1b;Abcg2−/− mice, 4 h, 10 mg/kg
[3] = male Abcb1a/1b−/− mice, 4 h, 10 mg/kg
[4] = male, po, 10 mg/kg, male Abcb1a/1b;Abcg2−/− mice, 4 h
[5] = male, po, 10 mg/kg, male Abcb1a/1b−/− mice, 4 h
[6] = male, po, 10 mg/kg, male Abcg2−/− mice, 4 h
[7] = male, po, 10 mg/kg, male wild-type mice, 4 h

Structure (SMILES): C[C@H]1CNC(=O)c2cnn3ccc(nc23)N[C@H](C)c2cc(F)ccc2O1 [repotrectinib]
- Small intestinal content recovery, fold decrease (Abcb1a/1b;Abcg2−/− mice vs wild-type): 13.6 fold
- Small intestinal content recovery, fold decrease (Abcb1a/1b−/− mice vs wild-type): 4.9 fold
- reduction of liver-to-plasma ratio (Abcg2−/− and Abcb1a/1b;Abcg2−/− mice compared to wild-type mice, 4 h): 30–35%
- AUC(0-t) (male Abcg2−/− mice, 4 h): 11900 ± 1420 ng·h/mL
- Fold change Cliver [1]: 1.37
- Fold change SIC (% of dose) [1]: 0.07
- Fold change ratio (SIC (%)-to-plasma) [1]: 0.03
- Fold change ratio (liver-to-plasma) [1]: 0.69
- Fold change ratio (testis-to-plasma) [1]: 5.6
- Fold increase Cbrain [1]: 29.1
- Fold increase Ctestis [1]: 10.8
- Fold change ratio (brain-to-plasma) [2]: 14 and 14.2
- Fold increase AUC0–4h [2]: 2.0
- Fold change Cliver (male Abcb1a/1b−/− mice, 4 h): 0.84
- Fold change SIC (% of dose) (male Abcb1a/1b−/− mice, 4 h): 0.20
- Fold change ratio (SIC (%)-to-plasma) (male Abcb1a/1b−/− mice, 4 h): 0.21
- Fold change ratio (liver-to-plasma) (male Abcb1a/1b−/− mice, 4 h): 0.85
- Fold change ratio (testis-to-plasma) (male Abcb1a/1b−/− mice, 4 h): 2.42
- Fold increase AUC0–4h (male Abcb1a/1b−/− mice, 4 h): 1.32
- Fold increase Ctestis (male Abcb1a/1b−/− mice, 4 h): 2.45
- Fold change ratio (brain-to-plasma) [3]: 4.1 and 4.13
- Fold increase Cbrain [3]: 4.1 and 4.14
- Fold change Cliver (male Abcg2−/− mice, 4 h): 1.01
- Fold change SIC (% of dose) (male Abcg2−/− mice, 4 h): 0.87
- Fold change ratio (SIC (%)-to-plasma) (male Abcg2−/− mice, 4 h): 0.54
- Fold change ratio (brain-to-plasma) (male Abcg2−/− mice, 4 h): 0.93
- Fold change ratio (liver-to-plasma) (male Abcg2−/− mice, 4 h): 0.65
- Fold change ratio (testis-to-plasma) (male Abcg2−/− mice, 4 h): 0.71
- Fold increase Cbrain (male Abcg2−/− mice, 4 h): 1.41
- Fold increase Ctestis (male Abcg2−/− mice, 4 h): 1.07
- Fold increase AUC0–4h (male Abcg2−/− mice, 4 h, 10 mg/kg): 1.7
- Fold change Cliver (male wild-type mice, 4 h): 1.00
- Fold change SIC (% of dose) (male wild-type mice, 4 h): 1.00
- Fold change ratio (SIC (%)-to-plasma) (male wild-type mice, 4 h): 1.00
- Fold change ratio (brain-to-plasma) (male wild-type mice, 4 h): 1.00
- Fold change ratio (liver-to-plasma) (male wild-type mice, 4 h): 1.00
- Fold change ratio (testis-to-plasma) (male wild-type mice, 4 h): 1.00
- Fold increase AUC0–4h (male wild-type mice, 4 h): 1.00
- Fold increase Cbrain (male wild-type mice, 4 h): 1.00
- Fold increase Ctestis (male wild-type mice, 4 h): 1.00
- Kp at 4 h (male, brain, po, 10 mg/kg, male Abcb1a/1b;Abcg2−/− mice, 4 h, read-out: Brain-to-plasma ratio): 2.13 ± 0.21
- concentration at 4 h (male, brain, po, 10 mg/kg, male Abcb1a/1b;Abcg2−/− mice, 4 h, read-out: Cbrain): 2760 ± 928 ng/g
- Kp at 4 h (male, brain, po, 10 mg/kg, male Abcb1a/1b−/− mice, 4 h, read-out: Brain-to-plasma ratio): 0.62 ± 0.17
- concentration at 4 h (male, brain, po, 10 mg/kg, male Abcb1a/1b−/− mice, 4 h, read-out: Cbrain): 394 ± 102 ng/g
- Kp at 4 h (male, brain, po, 10 mg/kg, male Abcg2−/− mice, 4 h, read-out: Brain-to-plasma ratio): 0.14 ± 0.03
- concentration at 4 h (male, brain, po, 10 mg/kg, male Abcg2−/− mice, 4 h, read-out: Cbrain): 134 ± 18 ng/g
- Kp at 4 h (male, brain, po, 10 mg/kg, male wild-type mice, 4 h, read-out: Brain-to-plasma ratio): 0.15 ± 0.03
- concentration at 4 h (male, brain, po, 10 mg/kg, male wild-type mice, 4 h, read-out: Cbrain): 95.1 ± 23.5 ng/g
- concentration at 4 h (male, liver, po, 10 mg/kg, male Abcb1a/1b;Abcg2−/− mice, 4 h, read-out: Cliver): 9090 ± 2750 ng/g
- Kp at 4 h (male, liver, po, 10 mg/kg, male Abcb1a/1b;Abcg2−/− mice, 4 h, read-out: Liver-to-plasma ratio): 7.2 ± 1.2
- concentration at 4 h (male, liver, po, 10 mg/kg, male Abcb1a/1b−/− mice, 4 h, read-out: Cliver): 5580 ± 2030 ng/g
- Kp at 4 h (male, liver, po, 10 mg/kg, male Abcb1a/1b−/− mice, 4 h, read-out: Liver-to-plasma ratio): 8.9 ± 2.4
- concentration at 4 h (male, liver, po, 10 mg/kg, male Abcg2−/− mice, 4 h, read-out: Cliver): 6690 ± 1210 ng/g
- Kp at 4 h (male, liver, po, 10 mg/kg, male Abcg2−/− mice, 4 h, read-out: Liver-to-plasma ratio): 6.8 ± 0.6
- concentration at 4 h (male, liver, po, 10 mg/kg, male wild-type mice, 4 h, read-out: Cliver): 6630 ± 1160 ng/g
- Kp at 4 h (male, liver, po, 10 mg/kg, male wild-type mice, 4 h, read-out: Liver-to-plasma ratio): 10.5 ± 1.9
- Cmax [4]: 5230 ± 1240 ng/mL
- AUC(0-t) [4]: 14000 ± 3180 ng·h/mL
- Cmax [5]: 3630 ± 620 ng/mL
- AUC(0-t) [5]: 9200 ± 1640 ng·h/mL
- Cmax [6]: 5080 ± 490 ng/mL
- Cmax [7]: 3080 ± 1440 ng/mL
- AUC(0-t) [7]: 6990 ± 2460 ng·h/mL
- Tmax [4]: 60 min
- Tmax [5]: 30 min
- Tmax [6]: 15 min
- Tmax [7]: 30 min
- Kp at 4 h (male, small intestinal content, po, 10 mg/kg, male Abcb1a/1b;Abcg2−/− mice, 4 h, read-out: SIC (%)-to-plasma ratio): 0.0003 ± 9e-05
- Kp at 4 h (male, small intestinal content, po, 10 mg/kg, male Abcb1a/1b−/− mice, 4 h, read-out: SIC (%)-to-plasma ratio): 0.00186 ± 0.00084
- Kp at 4 h (male, small intestinal content, po, 10 mg/kg, male Abcg2−/− mice, 4 h, read-out: SIC (%)-to-plasma ratio): 0.00475 ± 0.00154
- Kp at 4 h (male, small intestinal content, po, 10 mg/kg, male wild-type mice, 4 h, read-out: SIC (%)-to-plasma ratio): 0.00879 ± 0.00241
- concentration at 4 h (male, testis, po, 10 mg/kg, male Abcb1a/1b;Abcg2−/− mice, 4 h, read-out: Ctestis): 1670 ± 386 ng/g
- Kp at 4 h (male, testis, po, 10 mg/kg, male Abcb1a/1b;Abcg2−/− mice, 4 h, read-out: Testis-to-plasma ratio): 1.35 ± 0.31
- concentration at 4 h (male, testis, po, 10 mg/kg, male Abcb1a/1b−/− mice, 4 h, read-out: Ctestis): 380 ± 122 ng/g
- Kp at 4 h (male, testis, po, 10 mg/kg, male Abcb1a/1b−/− mice, 4 h, read-out: Testis-to-plasma ratio): 0.58 ± 0.14
- concentration at 4 h (male, testis, po, 10 mg/kg, male Abcg2−/− mice, 4 h, read-out: Ctestis): 166 ± 27 ng/g
- Kp at 4 h (male, testis, po, 10 mg/kg, male Abcg2−/− mice, 4 h, read-out: Testis-to-plasma ratio): 0.17 ± 0.02
- concentration at 4 h (male, testis, po, 10 mg/kg, male wild-type mice, 4 h, read-out: Ctestis): 155 ± 55 ng/g
- Kp at 4 h (male, testis, po, 10 mg/kg, male wild-type mice, 4 h, read-out: Testis-to-plasma ratio): 0.24 ± 0.07
- SIC (% of dose) (small intestinal content, male Abcb1a/1b;Abcg2−/− mice, 4 h, 10 mg/kg): 0.4 % of dose and 0.41 ± 0.23 ^(##) % of dose
- SIC (% of dose) (small intestinal content, male Abcb1a/1b−/− mice, 4 h, 10 mg/kg): 1.1 % of dose and 1.13 ± 0.40 % of dose
- SIC (% of dose) (small intestinal content, male Abcg2−/− mice, 4 h, 10 mg/kg): 4.8 % of dose and 4.84 ± 2.21 % of dose
